Key:
[1] = target: T1, AmpC (Enterobacter cloacae, UniProt P05364); test: β-lactamase enzyme inhibition assay, p99 AmpC (nitrocefin substrate); format: biochemical
T1 construct: made in house; host or cells: E. coli BL21(DE3)
Summary of the method: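 Native untagged β-lactamases were expressed in E. coli BL21(DE3), then purified by cation exchange and gel filtration. Enzyme was preincubated with inhibitor for 15 min at 37 °C before substrate was added. IC50 was taken from initial hydrolysis rates relative to no-inhibitor controls.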

[2] = tested on: K. pneumoniae expressing the Class A carbapenemase KPC-2; test: Broth microdilution MIC assay with meropenem, K. pneumoniae KPC-2; format: cell-based; conditions: Fixed Mero (meropenem) 4 μg/mL; K. p. 156319 KPC-3
Summary of the method: (§1)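 Visual MIC readout of the test compound after 16-20 hours at 37° C, measured in the presence of a constant 4 μg/ml β-lactam. Compound concentrations spanned 16 to 0.125 μg/mL in 2-fold steps in cation-adjusted Mueller Hinton broth.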

[3] = tested on: K. pneumoniae producing the Class D carbapenemase OXA-48; test: Broth microdilution MIC assay with meropenem, K. pneumoniae OXA-48; format: cell-based; conditions: Fixed Mero (meropenem) 4 μg/mL; K. p. 11978 OXA-48
Summary of the method: as §1

[4] = target: T2, KPC-2 (Klebsiella pneumoniae, UniProt Q9F663); test: β-lactamase enzyme inhibition assay, KPC-2 (imipenem substrate); format: biochemical; conditions: Class A; imipenem substrate, 300 nm; read-out: KPC-2
T2 construct: made in house; host or cells: E. coli BL21(DE3)
T2 sequence (Q9F663 25-293, looked up): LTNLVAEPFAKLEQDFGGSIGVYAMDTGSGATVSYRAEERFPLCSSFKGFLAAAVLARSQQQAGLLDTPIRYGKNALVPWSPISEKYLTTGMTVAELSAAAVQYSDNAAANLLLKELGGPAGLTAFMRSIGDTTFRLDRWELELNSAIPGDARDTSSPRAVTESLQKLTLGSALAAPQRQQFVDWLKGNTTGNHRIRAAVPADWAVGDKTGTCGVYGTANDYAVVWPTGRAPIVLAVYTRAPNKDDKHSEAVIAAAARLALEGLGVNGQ
Summary of the method: (§2)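 Native untagged β-lactamases were expressed in E. coli BL21(DE3), then purified by cation exchange and gel filtration. Enzyme was preincubated with inhibitor for 15 min at 37 °C before substrate was added. Imipenem (A300) served KPC-2 and cefotaxime (A260) served SHV-5. IC50 was taken from initial hydrolysis rates relative to no-inhibitor controls.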

[5] = target: T3, VIM-2 (Escherichia coli, UniProt Q5U7L7); test: β-lactamase enzyme inhibition assay, VIM-2 (nitrocefin substrate); format: biochemical; conditions: Class B; nitrocefin substrate, 486 nm; read-out: VIM-2
T3 construct: made in house; host or cells: E. coli BL21(DE3)
Summary of the method: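 Nitrocefin hydrolysis, read at 486 nm over 10 min, served as the measure of VIM-2 activity. The enzyme had been incubated with compound for 15 min at 37 °C before 100 μM substrate was added, and IC50 values were fitted from percent inhibition of the initial rate.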

[6] = target: OXA-48 (UniProt Q6XEC0); test: β-lactamase enzyme inhibition assay, Class D oxacillinase; format: biochemical; conditions: read-out: OXA-48
[7] = tested on: E. cloacae expressing the Class C P99; test: Broth microdilution MIC assay with ceftazidime, E. cloacae P99; format: cell-based; conditions: Fixed CAZ (ceftazidime) 4 μg/mL; E. cl. 144200 p99 AmpC
Summary of the method: as §1

[8] = target: T4, SHV-5 (Klebsiella pneumoniae, UniProt P0A3M1); test: β-lactamase enzyme inhibition assay, SHV-5 (cefotaxime substrate); format: biochemical
T4 construct: made in house; host or cells: E. coli BL21(DE3)
T4 sequence (P0A3M1 22-286): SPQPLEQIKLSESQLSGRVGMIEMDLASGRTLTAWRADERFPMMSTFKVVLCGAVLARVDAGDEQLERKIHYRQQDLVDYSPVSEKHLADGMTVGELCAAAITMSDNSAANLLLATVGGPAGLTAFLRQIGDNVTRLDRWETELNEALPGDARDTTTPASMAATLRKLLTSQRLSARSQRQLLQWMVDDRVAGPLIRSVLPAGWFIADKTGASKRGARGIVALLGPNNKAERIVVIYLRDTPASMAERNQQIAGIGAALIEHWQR
Summary of the method: as §2

[9] = tested on: K. pneumoniae expressing the class A carbapenemase KPC-2 and the class B carbapenemase VIM-4; test: Broth microdilution MIC assay with meropenem, K. pneumoniae KPC-2 and VIM-4; format: cell-based; conditions: Fixed Mero (meropenem) 4 μg/mL; K. p. A-1797 KPC-2 VIM-4
Summary of the method: as §1

[10] = tested on: E. coli expressing the Class A Extended Spectrum Beta-Lactamase (ESBL) CTX-M-15; test: Broth microdilution MIC assay with ceftazidime, E. coli CTX-M-15; format: cell-based; conditions: Fixed CAZ (ceftazidime) 4 μg/mL; E. coli ESBL4 CTX-M-15
Summary of the method: as §1

[11] = tested on: P. aeruginosa expressing the Class B carbapenemase VIM-2; test: Broth microdilution MIC assay with meropenem, P. aeruginosa VIM-2; format: cell-based; conditions: Fixed Mero (meropenem) 4 μg/mL; P. aerug. 2775 VIM-2
Summary of the method: as §1

T1 sequence (P05364 21-381): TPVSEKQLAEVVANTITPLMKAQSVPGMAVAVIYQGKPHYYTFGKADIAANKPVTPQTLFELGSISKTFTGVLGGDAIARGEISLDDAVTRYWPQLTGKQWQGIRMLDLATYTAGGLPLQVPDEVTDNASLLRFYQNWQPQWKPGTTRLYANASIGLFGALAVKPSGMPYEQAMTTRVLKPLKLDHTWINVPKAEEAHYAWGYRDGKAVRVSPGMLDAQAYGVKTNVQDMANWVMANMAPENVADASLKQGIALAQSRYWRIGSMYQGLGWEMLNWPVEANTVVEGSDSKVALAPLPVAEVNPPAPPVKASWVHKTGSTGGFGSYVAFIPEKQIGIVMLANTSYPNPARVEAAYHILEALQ

SMILES | IC50 [1] | MIC (μg/mL) of Exemplary Compounds in presence of fixed β-lactams: K. p. 156319 KPC-3 [2] | MIC (μg/mL) of Exemplary Compounds in presence of fixed β-lactams: K. p. 11978 OXA-48 [3] | IC50 [4] | IC50 [5] | IC50 [6] | MIC (μg/mL) of Exemplary Compounds in presence of fixed β-lactams: E. cl. 144200 p99 AmpC [7] | IC50 [8] | MIC (μg/mL) of Exemplary Compounds in presence of fixed β-lactams: K. p. A-1797 KPC-2 VIM-4 [9] | MIC (μg/mL) of Exemplary Compounds in presence of fixed β-lactams: E. coli ESBL4 CTX-M-15 [10] | MIC (μg/mL) of Exemplary Compounds in presence of fixed β-lactams: P. aerug. 2775 VIM-2 [11]
NCc1nnn(CC(=O)N[C@H]2Cc3cccc(C(=O)O)c3OB2O)c1Cl [Example 107, (R)-3-(2-(4-(aminomethyl)-5-chloro-1H-1,2,3-triazol-1-yl)acetamido)-2-hydroxy-3,4-dihydro-2H-benzo[e][1,2]oxaborinine-8-carboxylic acid] | < 100 nM | C (C represents an MIC of <1 μg/mL) | B (B represents an MIC between 1 and 16 μg/mL inclusive) | < 100 nM | < 100 nM | < 100 nM | B (B represents an MIC between 1 and 16 μg/mL inclusive) | 100 to 1000 nM | C (C represents an MIC of <1 μg/mL) | C (C represents an MIC of <1 μg/mL) | C (C represents an MIC of <1 μg/mL)
NCCn1ncnc1CC(=O)N[C@H]1Cc2cccc(C(=O)O)c2OB1O [Example 119, (R)-3-(2-(1-(2-aminoethyl)-1H-1,2,4-triazol-5-yl)acetamido)-2-hydroxy-3,4-dihydro-2H-benzo[e][1,2]oxaborinine-8-carboxylic acid] | < 100 nM | C (C represents an MIC of <1 μg/mL) | B (B represents an MIC between 1 and 16 μg/mL inclusive) | 100 to 1000 nM | 100 to 1000 nM | 100 to 1000 nM | C (C represents an MIC of <1 μg/mL) | < 100 nM | B (B represents an MIC between 1 and 16 μg/mL inclusive) | C (C represents an MIC of <1 μg/mL) | C (C represents an MIC of <1 μg/mL)
N=C(N)N1CC(c2cn(CC(=O)N[C@H]3Cc4cccc(C(=O)O)c4OB3O)nn2)C1 [Example 91, (R)-3-(2-(4-(1-carbamimidoylazetidin-3-yl)-1H-1,2,3-triazol-1-yl)acetamido)-2-hydroxy-3,4-dihydro-2H-benzo[e][1,2]oxaborinine-8-carboxylic acid] | < 100 nM | C (C represents an MIC of <1 μg/mL) | B (B represents an MIC between 1 and 16 μg/mL inclusive) | < 100 nM | 100 to 1000 nM | 1000 to 10000 nM | C (C represents an MIC of <1 μg/mL) | < 100 nM | B (B represents an MIC between 1 and 16 μg/mL inclusive) | C (C represents an MIC of <1 μg/mL) | B (B represents an MIC between 1 and 16 μg/mL inclusive)
CNCCNC(=O)c1cn(CC(=O)N[C@H]2Cc3cccc(C(=O)O)c3OB2O)nn1 [Example 87, (R)-2-hydroxy-3-(2-(4-((2-(methylamino)ethyl)carbamoyl)-1H-1,2,3-triazol-1-yl)acetamido)-3,4-dihydro-2H-benzo[e][1,2]oxaborinine-8-carboxylic acid] | < 100 nM | C (C represents an MIC of <1 μg/mL) | B (B represents an MIC between 1 and 16 μg/mL inclusive) | < 100 nM | < 100 nM | 1000 to 10000 nM | C (C represents an MIC of <1 μg/mL) | 100 to 1000 nM | C (C represents an MIC of <1 μg/mL) | C (C represents an MIC of <1 μg/mL) | C (C represents an MIC of <1 μg/mL)
Nc1nc(=O)c(Cc2cn(CC(=O)N[C@H]3Cc4cccc(C(=O)O)c4OB3O)nn2)c(N)[nH]1 [Example 64, (R)-3-(2-(4-((2,6-diamino-4-oxo-1,4-dihydropyrimidin-5-yl)methyl)-1H-1,2,3-triazol-1-yl)acetamido)-2-hydroxy-3,4-dihydro-2H-benzo[e][1,2]oxaborinine-8-carboxylic acid] | < 100 nM | C (C represents an MIC of <1 μg/mL) | B (B represents an MIC between 1 and 16 μg/mL inclusive) | < 100 nM | 100 to 1000 nM | < 100 nM | C (C represents an MIC of <1 μg/mL) | < 100 nM | B (B represents an MIC between 1 and 16 μg/mL inclusive) | C (C represents an MIC of <1 μg/mL) | B (B represents an MIC between 1 and 16 μg/mL inclusive)
NCCCNC(=O)c1cn(CC(=O)N[C@H]2Cc3cccc(C(=O)O)c3OB2O)nn1 [Example 65, (R)-3-(2-(4-((3-aminopropyl)carbamoyl)-1H-1,2,3-triazol-1-yl)acetamido)-2-hydroxy-3,4-dihydro-2H-benzo[e][1,2]oxaborinine-8-carboxylic acid] | < 100 nM | C (C represents an MIC of <1 μg/mL) | B (B represents an MIC between 1 and 16 μg/mL inclusive) | < 100 nM | < 100 nM | 100 to 1000 nM | C (C represents an MIC of <1 μg/mL) | < 100 nM | B (B represents an MIC between 1 and 16 μg/mL inclusive) | C (C represents an MIC of <1 μg/mL) | B (B represents an MIC between 1 and 16 μg/mL inclusive)

Source: patent publication US11046716B2, “Beta-lactamase inhibitors” (priority 2015, dated 2021)
